Test results taken from US4578475A, “Novel D-homosteroids” (Hoffman-La Roche Inc., priority 1983, dated 1986).

Experiments:
[1] = target: T1, Δ^5 -isomerase/3β-hydroxysteroid dehydrogenase (Rattus norvegicus, UniProt P22071); assay: Inhibition of the formation of progesterone in vitro (14C-pregnenolone, rat ovary microsomes); assay type: biochemical; conditions: 0.5 μg protein, 250 pmol 14C-pregnenolone, 0.4 mg NAD+, 30 minutes, 37° C., pH 7.4, read-out: IC50 (concentration of the test substance at which the enzyme activity amounts to 50% of the maximum value)
T1 construct: from tissue; host or cells: rat ovary microsomes
T1 sequence (P22071 1-373): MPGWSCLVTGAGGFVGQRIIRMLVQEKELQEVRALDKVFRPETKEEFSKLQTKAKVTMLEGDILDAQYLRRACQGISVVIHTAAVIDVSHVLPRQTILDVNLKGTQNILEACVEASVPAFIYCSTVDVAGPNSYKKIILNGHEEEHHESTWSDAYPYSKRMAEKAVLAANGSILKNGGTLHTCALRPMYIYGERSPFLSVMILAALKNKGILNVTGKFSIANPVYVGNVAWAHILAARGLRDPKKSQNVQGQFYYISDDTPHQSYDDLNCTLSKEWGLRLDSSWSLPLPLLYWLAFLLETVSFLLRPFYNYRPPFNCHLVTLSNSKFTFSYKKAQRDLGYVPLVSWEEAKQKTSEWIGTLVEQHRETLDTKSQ
Method: The activity of the D-homosteroids of formula I as inhibitors of Δ^5 -isomerase/3β-hydroxysteroid dehydrogenase was determined in the following experimental procedures:
Rat overies were homogenized in 0.05 M Na2 HPO4 buffer (pH 7.2) which contained 0.25 M sucrose and 0.05 M dithiothreitol. The microsomes obtained after centrifugation were suspended in 0.05 M Na2 HPO4 buffer (pH 7.4) which contained 0.001 M EDTA. This microsome preparation was assayed firstly for enzymatic activity by measuring the increase of the optical density at 340 nm by the reduction of NAD^+. Thereafter, aliquot portions (0.5 μg of protein) were incubated in 1.8 ml of buffer for 30 minutes at 37° C. with 250 pmol of ^14 C-pregnelonone, 0.4 mg of NAD^+ and different concentrations of the test substance dissolved in the minimum amounts of dimethyl sulphoxide. The reaction was interrupted by the addition of methylene chloride. After extraction and evaporation of the solvent, the radioactive metabolites were separated on silica gel-aluminium plates with benzene/acetone (85:15). The radioactivity was measured by means of a scintillation counter.

[2] = system: pregnant female albino rats; assay: Interceptive activity in rats (pregnant rats, serum progesterone, living foetuses, resorptions, vacant implantation positions); assay type: in vivo, rat; conditions: for Serum progesterone 3 h later: orally or intramuscularly on 10th day of pregnancy; for Living foetuses, n (number of animals) / Living foetuses, x (mean of the observations) / Resorption, n (number of animals) / Resorption, x (mean of the observations) / Vacant implantation positions, n (number of animals) / Vacant implantation positions, x (mean of the observations): orally or intramuscularly on 10th day, killed on 15th day
From the text: Female albino rats were kept under controlled conditions, the synchronicity of the cycle being monitored by daily vaginal douching and subsequent cytological investigation. At proestrus the animals were brought together with male, fertile rats. The successful insemination was checked on the following morning and this day was denoted as the 1st day of the pregnancy. The pregnant animals then received the test substances as a suspension in a standard vehicle (0.5% carboxymethylcellulose, 0.4% TWEEN 80, 0.9% benzyl alcohol and 0.9% NaCl in water) orally or intramuscularly on the 10th day. The animals were killed on the 15th day. The blood was collected and the uteri were investigated for living foetuses, resorptions and vacant implantation positions. The serum hormone concentrations were determined radio-immunologically.

IC50 [1] [nM]	SMILES	Serum progesterone 3 h later ([2]; 7.5 mg/kg) [ng/mL]	Living foetuses, n (number of animals) ([2]; 7.5 mg/kg)	Resorption, n (number of animals) ([2]; 7.5 mg/kg)	Resorption, x (mean of the observations) ([2]; 7.5 mg/kg)	Vacant implantation positions, n (number of animals) ([2]; 7.5 mg/kg)	Vacant implantation positions, x (mean of the observations) ([2]; 7.5 mg/kg)	Serum progesterone 3 h later ([2]; 15 mg/kg) [ng/mL]	Living foetuses, n (number of animals) ([2]; 15 mg/kg)	Resorption, n (number of animals) ([2]; 15 mg/kg)	Vacant implantation positions, n (number of animals) ([2]; 15 mg/kg)	Vacant implantation positions, x (mean of the observations) ([2]; 15 mg/kg)	other results
6	CC(=O)O[C@H]1C=CC[C@H]2[C@@H]3CC=C4C(C)(C)c5nn(C(C)=O)cc5C[C@]4(C)[C@H]3CC[C@]12C [Example 12, 1'-acetyl-4,4-dimethyl-1'H-D-homo-androsta-5,16-dieno[3,2-c]pyrazol-17aβ-yl acetate]	–	–	–	–	–	–	–	–	–	–	–	–
–	CC1(C)C(=O)[C@H](C#N)C[C@@]2(C)C1=CC[C@@H]1[C@@H]2CC[C@@]2(C)[C@H]1CCC[C@]2(C)O [Example 14, 17aβ-hydroxy-4,4,17a-trimethyl-3-oxo-D-homo-androst-5-ene-2a-carbonitrile]	20	1	3	12	4	12	20	1	3	4	13	Living foetuses, x (mean of the observations) ([2]; 7.5 mg/kg): 3; Living foetuses, x (mean of the observations) ([2]; 15 mg/kg): 12; Resorption, x (mean of the observations) ([2]; 15 mg/kg): 14
6.5	CC1(C)C(=O)[C@H](C#N)C[C@@]2(C)C1=CC[C@@H]1[C@@H]2CC[C@@]2(C)[C@H]1CC=C[C@]2(C)O [Example 17, 17aβ-hydroxy-4,4,17a-trimethyl-3-oxo-D-homo-androsta-5,16-diene-2α-carbonitrile]	29	0	2	15	4	11	–	–	–	–	–	Serum progesterone 3 h later ([2]; 3.75 mg/kg): 32 ng/mL; Living foetuses, n (number of animals) ([2]; 3.75 mg/kg): 2; Living foetuses, x (mean of the observations) ([2]; 3.75 mg/kg): 5; Resorption, n (number of animals) ([2]; 3.75 mg/kg): 5; Resorption, x (mean of the observations) ([2]; 3.75 mg/kg): 11; Vacant implantation positions, n (number of animals) ([2]; 3.75 mg/kg): 1; Vacant implantation positions, x (mean of the observations) ([2]; 3.75 mg/kg): 13
–	CC1(C)C2=CC[C@@H]3[C@H](CC[C@@]4(C)[C@H]3CCC[C@]4(C)O)[C@@]2(C)Cc2cnoc21 [Example 3, 4,4,17a-trimethyl-D-homo-androsta-2,5-dieno[2,3-d]-isoxazol-17aβ-ol]	25	4	5	6	2	3	29	4	6	3	13	Living foetuses, x (mean of the observations) ([2]; 7.5 mg/kg): 9; Living foetuses, x (mean of the observations) ([2]; 15 mg/kg): 9; Resorption, x (mean of the observations) ([2]; 15 mg/kg): 3
–	CC1(C)C2=CC[C@@H]3[C@H](CC[C@@]4(C)[C@H]3CC=C[C@]4(C)O)[C@@]2(C)Cc2cnoc21 [Example 2, 4,4,17a-trimethyl-D-homo-androsta-2,5,16-trieno[2,3-d]isoxazol-17aβ-ol]	39	0	0	–	6	13	35	0	0	6	12	Serum progesterone 3 h later ([2]; 3.75 mg/kg): 87 ng/mL; Living foetuses, n (number of animals) ([2]; 3.75 mg/kg): 3; Living foetuses, x (mean of the observations) ([2]; 3.75 mg/kg): 12; Resorption, n (number of animals) ([2]; 3.75 mg/kg): 2; Resorption, x (mean of the observations) ([2]; 3.75 mg/kg): 9; Vacant implantation positions, n (number of animals) ([2]; 3.75 mg/kg): 2; Vacant implantation positions, x (mean of the observations) ([2]; 3.75 mg/kg): 13
6	CCCCC1(O)C=CCC2C3CC=C4C(C)(C)c5[nH]ncc5CC4(C)C3CCC21C [Example 7, 17a-butyl-4,4-dimethyl-2'H-D-homo-androsta-2,5,16-trieno[3,2-c]pyrazol-17aβ-ol]	–	–	–	–	–	–	–	–	–	–	–	–
–	CC1(C)C(=O)C(=CNO)C[C@@]2(C)C1=CC[C@@H]1[C@@H]2CC[C@@]2(C)[C@H]1CC=C[C@]2(C)O [Example 21, 17aβ-hydroxy-2-[(hydroxyamino)methylene]-4,4,17a-trimethyl-D-homo-androsta-5,16-dien-3-one]	24	3	6	10	2	10	17	1	0	6	13	Living foetuses, x (mean of the observations) ([2]; 7.5 mg/kg): 6; Living foetuses, x (mean of the observations) ([2]; 15 mg/kg): 15
7	C[C@]1(O)C=CC[C@H]2[C@@H]3CC[C@@]45O[C@]4(C)C(=O)[C@H](C#N)C[C@]5(C)[C@H]3CC[C@@]21C [Example 25, 4α, 5-epoxy-17aβ-hydroxy-4,17a-dimethyl-3-oxo-D-homo-5α-androst-16-ene-2α-carbonitrile]	–	–	–	–	–	–	–	–	–	–	–	–
–	CC1(C)C(=O)[C@H](C#N)C[C@@]2(C)C1=CC[C@@H]1[C@@H]2CC[C@@]2(C)[C@H]1CC=C[C@@]21CCC(=O)O1 [Example 19, 2α-cyano-4,4-dimethyl-3-oxo-D-homo-17aα-pregna-5,16-diene-21,17a-carbolactone]	–	–	–	–	–	–	9	0	0	8	13	–

SMILES	IC50 [1] [nM]	Serum progesterone 3 h later ([2]; 7.5 mg/kg) [ng/mL]	Living foetuses, n (number of animals) ([2]; 7.5 mg/kg)	Resorption, n (number of animals) ([2]; 7.5 mg/kg)	Resorption, x (mean of the observations) ([2]; 7.5 mg/kg)	Vacant implantation positions, n (number of animals) ([2]; 7.5 mg/kg)	Vacant implantation positions, x (mean of the observations) ([2]; 7.5 mg/kg)	Serum progesterone 3 h later ([2]; 15 mg/kg) [ng/mL]	Living foetuses, n (number of animals) ([2]; 15 mg/kg)	Resorption, n (number of animals) ([2]; 15 mg/kg)	Vacant implantation positions, n (number of animals) ([2]; 15 mg/kg)	Vacant implantation positions, x (mean of the observations) ([2]; 15 mg/kg)	other results
CC(=O)OC1=C(C#N)C[C@]2(C)[C@H]3CC[C@]4(C)[C@@H](OC(C)=O)C=CC[C@H]4[C@@H]3CC[C@]23O[C@H]13 [Example 22, 3,17aβ-diacetoxy-4α,5α-epoxy-D-homo-5α-androsta-2,16-diene-2-carbonitrile]	0.9	–	–	–	–	–	–	–	–	–	–	–	–
CC1(C)C2=CC[C@H]3[C@@H]4CC=C[C@H](O)[C@@]4(C)CC[C@@H]3[C@@]2(C)Cc2cn[nH]c21 [Example 5, 4,4-dimethyl-2'H-D-homo-androsta-2,5,16-trieno[3,2-c]pyrazol-17aβ-ol]	0.8	–	–	–	–	–	–	–	–	–	–	–	–
CC1(C)C2=CC[C@@H]3[C@H](CC[C@@]4(C)[C@H]3CC=C[C@]4(C)O)[C@@]2(C)Cc2cn[nH]c21 [Example 6, 4,4,17a-trimethyl-2'H-D-homo-androsta-2,5,16-trieno[3,2-c]-pyrazol-17aβ-ol]	0.4	–	–	–	–	–	–	–	–	–	–	–	–
